Assay results published in patent US8809389B2, “Substituted alkynyl phenoxy compounds as new synergists in pesticidal compositions” (Endura S.p.A., priority 2009, dated 2014).

Legend:
[1] = tested on: Myzus persicae; experiment: Topical application bioassay on aphid clones: imidacloprid with or without synergist pre-treatment; conditions: aphid clone 5191A
Experimental: Aphid clones were reared on Chinese cabbage (Brassica rapa L. var. Pekinensis c.v Wong Bok) (Brassicaceae) leaves held in small plastic box-cages maintained at 18±2° C. with a 16:8 h light:dark photoperiod (Blackman R L, Variation in the photoperiodic response within natural populations of Myzus persicae (Sulzer). Bull Ent Res 60: 533-546 (1971)).
Clone 4106A is a laboratory insecticide-susceptible standard2 . […] Both aphid clones have been established from single parthenogenetic M. persicae females (Foster S P, Denholm I, Thompson R, Poppy G M, Powell W, Reduced response of insecticide-resistant aphids and attraction of parasitoids to alarm pheromone; a potential fitness trade-off. Bull Ent Res 95: 37-46 (2005)).
12.1.2 Topical Application Bioassay with 5191A Aphid Clone Young apterae were transferred to the abaxial surface of Chinese cabbage leaf discs (10 adults per leaf disc, at least 3 replicates per concentration) held on 1% agar in plastic containers (4 cm in diameter). The upper edge of each container was coated with Fluon (Whitford Plastics, UK) to prevent subsequent aphid escape from the leaf surface. After allowing 2 h for the aphids to settle, each was dosed with 0.25 μl of either 1 g L^−1 Compound of Example 3 dissolved in acetone or acetone only. After 4 h aphids were further treated with 0.25 μl imidacloprid in acetone (96% AR) using a
Burkard microapplicator (Burkard, Rickmansworth, UK). Controls were treated with acetone only. Treated aphids were stored at 18±2° C. and 16 h light: 8 h dark photoperiod. All bioassays were scored at the endpoint of 72 h after treatment. Adults incapable of co-ordinated movement (after gentle touching with a paint brush if necessary) were scored as dead. All bioassays were completed in triplicate.

[2] = tested on: P450 enzymes (oxidases) of pollen beetle homogenate; experiment: Oxidase assay: 7-ethoxycoumarin O-deethylation inhibition in pollen beetle homogenate; type: biochemical, Meligethes aeneus; conditions: 3 μl of 10 mM compound, enzyme plus acetone = 100
Experimental: The ability of the novel compositions comprising the synergists of Formula (I) to inhibit P450 enzymes, a major mechanism conferring resistance to xenobiotics, was measured using pollen beetle homogenate.
Approximately 50 non-sexed adult pollen beetle from each population were homogenised on ice in 1 ml 0.1 M sodium phosphate buffer, pH 7.6, containing, 1 mM EDTA, 1 mM DTT, 1 mM PTU, 1 mM PMSF and centrifuged at 10 000×g for 10 min. The resulting supernatant was used as the enzyme source.
The O-deethylation inhibition by compounds of Example 2 or 3 was measured using 7-ethoxycoumarin (7-EC) according to Ullrich and Weber (Ullrich V and Weber P, The O-dealkylation of 7-ethoxycoumarin by liver microsomes. Z Physiol Chem 353: 1171-1177 (1972)) and adapted to the microplate format as described by DeSousa (De Sousa G, Cuany A, Brun A, Amichot M, Rahmani R, Berge J B, A microfluorometric method for measuring ethoxycoumarin-O-deethylase activity on individual Drosophila melanogaster abdomens: interest for screening resistance in insect populations Analyt. Biochem 229: 86-91 (1995)). Briefly, 7-EC was dissolved in ethanol to make a 20 mM stock solution and diluted by the addition of 0.1 M, pH 7.8 sodium phosphate buffer to give a concentration of 0.5 mM. Fifty microliters of pollen beetle enzyme were added to separate wells of a microplate, followed by the addition of 3 μl 10 mM of either compounds of Example 2 or 3 or acetone only. After 10 min incubation in room temperature, 80 μl 0.5 mM 7-EC was added following by another 5 min at 30° C. The reaction initiated by the addition of 10 μl 9.6 mM NADPH in 0.1 M sodium phosphate, pH 7.8. Enzyme activity was measured in a Victor^2 1420 multilabel counter (Wallac, Milton Keynes, UK) for 60 min with readings taken every 5 min, using an excitation wavelength of 370 nm and an emission wavelength of 460 nm. All assays were performed in triplicate.
The ability of the composition comprising the compounds of Examples 2 and 3 to inhibit oxidases derived from the 3 different pollen beetle populations is presented in Table 7.

CC#CCOc1cc2c(cc1CCC)OCO2 [Example 3, 5-(but-2-ynyloxy)-6-propyl-benzo[1.3]dioxole]
LC50 of imidacloprid after pre-treatment with the synergist ([1]; FE4(R3), 0.25 μl of 1 g L^−1 synergist 4 h before imidacloprid, scored 72 h): 1.25 ppm
SF, synergism factor (LC50 unsynergised / LC50 synergised) ([1]; imidacloprid plus 1 g L^−1 synergist pre-treatment): 72.4
Inhibition of 7-ethoxycoumarin O-deethylation (%) ([2]; Lebork homogenate): −2.24%
Inhibition of 7-ethoxycoumarin O-deethylation (%) ([2]; Rogalin homogenate): 27.6%
Inhibition of 7-ethoxycoumarin O-deethylation (%) ([2]; UK population homogenate): 10.4%
